According to the supplement of paper PMC13380429:

Key:
[1] = test system: A549-ACE2 infected with SARS-CoV-2; experiment: cell count relative to DMSO; higher = less toxic; conditions: 24 h
HepG2 [2] = experiment: cell viability relative to DMSO; higher = less toxic; conditions: 72 h
U2OS [3] = experiment: as above; conditions: 72 h
Vero E6 [4] = experiment: as above; conditions: 72 h
Calu-3 [5] = experiment: as above; conditions: 72 h
Caco-2 [6] = experiment: as above; conditions: 72 h
[7] = test system: A549-ACE2 infected with SARS-CoV-2; experiment: morphology score (similarity to uninfected cells); higher = more like uninfected cells; conditions: 24 h
HepG2 [8] = experiment: drug sensitivity score (DSS) for viability; higher = more toxic; extreme values may be limits of the assay; conditions: 72 h
U2OS [9] = experiment: as above; conditions: 72 h
Vero E6 [10] = experiment: as above; conditions: 72 h
Calu-3 [11] = experiment: as above; conditions: 72 h
Caco-2 [12] = experiment: as above; conditions: 72 h
A549-ACE2 = experiment: drug-induced phospholipidosis relative to tamoxifen; higher = more phospholipidosis
Vero E6 [13] = experiment: relative viability EC50 (midpoint between 100% and the lowest measured viability); higher = less toxic; conditions: 72 h
Calu-3 [14] = experiment: as above; conditions: 72 h
[15] = test system: A549-ACE2 infected with SARS-CoV-2; experiment: SARS-CoV-2 infection rate relative to DMSO; higher = more infection; conditions: 24 h
HepG2 [16] = experiment: relative viability EC50 (midpoint between 100% and the lowest measured viability); higher = less toxic; conditions: 72 h
U2OS [17] = experiment: as above; conditions: 72 h
Caco-2 [18] = experiment: as above; conditions: 72 h

CNC(=O)c1ccccc1Sc1ccc2c(/C=C/c3ccccn3)n[nH]c2c1 [axitinib]
Conditions	SARS-CoV-2 infection rate, [15] [%]	cell count, [1] [%]	cell viability, Caco-2 [6] [%]	cell viability, Calu-3 [5] [%]	cell viability, HepG2 [2] [%]	cell viability, U2OS [3] [%]	cell viability, Vero E6 [4] [%]	morphology score, [7]
1 nM	–	–	97.2	108	111	102	114	–
10 nM	–	–	108	102	97.7	104	106	–
100 nM	–	–	92	93.6	108	103	108	–
0.3 µM	92	105	–	–	–	–	–	0.34
1000 nM	–	–	97.8	86.7	92.2	105	101	–
3 µM	98	75	–	–	–	–	–	0.32
10 µM	96	77	–	–	–	–	–	0.35
10000 nM	–	–	72.5	81	71.8	74	94.2	–
30 µM	91	68	–	–	–	–	–	0.49

Conditions	drug sensitivity score	relative viability EC50 [µM]
Caco-2 [12]	1.5	–
Calu-3 [11]	1.7	–
Calu-3 [14]	–	> 10
HepG2 [8]	2.3	–
U2OS [9]	0.8	–
Vero E6 [10]	0	–
Vero E6 [13]	–	> 10

drug-induced phospholipidosis [%], A549-ACE2
Conditions	0.3 µM	0.833333 µM	3.33333 µM	6.66667 µM	10 µM	30 µM
24 h	2.86	4.48	16.8	10.3	7.44	17.1
48 h	1.43	3.96	7.83	7.9	8.63	15.9
72 h	4.56	4.58	–	–	–	–

C=C[C@@]1(C)CC(=O)[C@]2(O)[C@@]3(C)[C@@H](O)CCC(C)(C)[C@@H]3[C@H](OC(=O)CCN(C)C)[C@H](OC(C)=O)[C@@]2(C)O1 [colforsin-daproate]
Conditions	SARS-CoV-2 infection rate, [15] [%]	cell count, [1] [%]	cell viability, Caco-2 [6] [%]	cell viability, Calu-3 [5] [%]	cell viability, HepG2 [2] [%]	cell viability, U2OS [3] [%]	cell viability, Vero E6 [4] [%]	morphology score, [7]
1 nM	–	–	101	103	93.9	105	98	–
10 nM	–	–	98.9	95.5	100	103	93.9	–
0.1 µM	88	99	–	–	–	–	–	0.33
100 nM	–	–	109	99.2	94	102	96.5	–
0.3 µM	98	105	–	–	–	–	–	0.05
1 µM	106	105	–	–	–	–	–	-0.06
1000 nM	–	–	94	106	100	101	90.5	–
3 µM	108	104	–	–	–	–	–	-0.03
10000 nM	–	–	89.1	98.9	95.3	97.3	77	–

Conditions	drug sensitivity score	relative viability EC50 [µM]
Caco-2 [12]	0.1	–
Caco-2 [18]	–	> 10
Calu-3 [11]	0	–
Calu-3 [14]	–	> 10
HepG2 [8]	0	–
HepG2 [16]	–	> 10
U2OS [9]	0	–
U2OS [17]	–	> 10
Vero E6 [10]	1.3	–
Vero E6 [13]	–	> 10

drug-induced phospholipidosis [%], A549-ACE2
Conditions	0.3 µM	0.833333 µM	3.33333 µM	6.66667 µM	10 µM	30 µM
24 h	-0.11	-0.39	-2.43	1	1.72	23.6
48 h	0.82	-1.25	-1.96	0.45	2.53	34.6
72 h	2.97	-1.9	-2.38	-1.51	0.457	–

CC(C)Oc1ccc(-c2nc(-c3cccc4c3CC[C@@H]4NCCO)no2)cc1C#N [ozanimod]
Conditions	SARS-CoV-2 infection rate, [15] [%]	cell count, [1] [%]	cell viability, Caco-2 [6] [%]	cell viability, Calu-3 [5] [%]	cell viability, HepG2 [2] [%]	cell viability, U2OS [3] [%]	cell viability, Vero E6 [4] [%]	morphology score, [7]
1 nM	–	–	95.2	94.5	120	95.2	103	–
10 nM	–	–	75.2	87.2	101	105	96.1	–
0.1 µM	96	104	–	–	–	–	–	0.14
100 nM	–	–	69.7	93.3	106	94.9	102	–
0.3 µM	111	100	–	–	–	–	–	0.03
1 µM	91	100	–	–	–	–	–	0.33
1000 nM	–	–	77.6	96.6	100	97.8	103	–
3 µM	44	114	–	–	–	–	–	0.77
10000 nM	–	–	73	73.1	44.4	72.2	76.7	–

Conditions	drug sensitivity score	relative viability EC50 [µM]
Caco-2 [12]	12.1	–
Calu-3 [11]	1.6	–
HepG2 [8]	3	–
HepG2 [16]	–	3.17
U2OS [9]	1.5	–
Vero E6 [10]	0.6	–
Vero E6 [13]	–	> 10

drug-induced phospholipidosis [%], A549-ACE2
Conditions	0.3 µM	0.833333 µM	3.33333 µM	6.66667 µM	10 µM
24 h	6.09	18	72.5	83.5	92.3
48 h	-8.87	1.18	67.1	90.1	96.7
72 h	-6.97	0.974	62.1	108	122

COc1c(OCCCN2CCOCC2)ccc2c1N=C(NC(=O)c1cnc(N)nc1)N1CCN=C21 [copanlisib]
Conditions	SARS-CoV-2 infection rate, [15] [%]	cell count, [1] [%]	cell viability, Caco-2 [6] [%]	cell viability, Calu-3 [5] [%]	cell viability, HepG2 [2] [%]	cell viability, U2OS [3] [%]	cell viability, Vero E6 [4] [%]	morphology score, [7]
1 nM	–	–	99.2	102	98.5	101	98.8	–
10 nM	–	–	98.7	93.1	109	96.2	105	–
0.1 µM	101	101	–	–	–	–	–	0.23
100 nM	–	–	94.6	95.4	101	98.2	96	–
0.3 µM	97	100	–	–	–	–	–	0.09
1 µM	90	98	–	–	–	–	–	0.35
1000 nM	–	–	86.9	73.4	71	96.9	89.8	–
3 µM	92	83	–	–	–	–	–	0.32
10000 nM	–	–	34.9	32.9	51.9	67.5	65.1	–

Conditions	drug sensitivity score	relative viability EC50 [µM]
Caco-2 [12]	5.7	–
Caco-2 [18]	–	1.73
Calu-3 [11]	6.8	–
Calu-3 [14]	–	1.26
HepG2 [8]	6	–
U2OS [9]	2	–
Vero E6 [10]	2.9	–

drug-induced phospholipidosis [%], A549-ACE2
Conditions	0.3 µM	0.833333 µM	3.33333 µM	6.66667 µM	10 µM	30 µM
24 h	-3.17	-4.37	0.15	5.67	10.8	56.5
48 h	-1.4	-3.62	0.68	3.97	5.69	–
72 h	-0.924	-3.86	0.214	2.05	–	–
